The record followed here is ChEMBL document CHEMBL3044727, “Syntheses, spectral, crystallographic, antimicrobial, and antioxidant studies of few Mannich bases” (2012).

Common to all, as to type: functional
The subject of assay [1] is Aspergillus fumigatus. The assay can be described thus: Antimicrobial activity against Aspergillus fumigatus MTCC 6594 at 60 ug after 48 hr by streak plate method. The conditions noted are these: MTCC 6594, 48 h, read-out: IZ.
In assay [2] the test system is Aspergillus fumigatus. The assay is described as follows: Antimicrobial activity against Aspergillus fumigatus MTCC 6594 at 40 ug after 48 hr by streak plate method. The conditions noted are these: MTCC 6594, 48 h, read-out: IZ.
The subject of assay [3] is Aspergillus fumigatus. The assay is described as follows: Antimicrobial activity against Aspergillus fumigatus MTCC 6594 at 20 ug after 48 hr by streak plate method. The conditions noted are these: MTCC 6594, 48 h, read-out: IZ.
For assay [4], the system named is Aspergillus oryzae. The assay is described as follows: Antimicrobial activity against Aspergillus oryzae MTCC 3782 at 60 ug after 48 hr by streak plate method. The conditions noted are these: MTCC 3782, 48 h, read-out: IZ.
Assay [5] relates to Aspergillus oryzae. The assay is described as follows: Antimicrobial activity against Aspergillus oryzae MTCC 3782 at 40 ug after 48 hr by streak plate method. The conditions noted are these: MTCC 3782, 48 h, read-out: IZ.
Assay [6] concerns Aspergillus oryzae. The assay is described as follows: Antimicrobial activity against Aspergillus oryzae MTCC 3782 at 20 ug after 48 hr by streak plate method. As to conditions: MTCC 3782, 48 h, read-out: IZ.
Assay [7] deals with Bacillus subtilis. The assay is described as follows: Antimicrobial activity against Bacillus subtilis MTCC 4905 at 60 ug after 24 hr by streak plate method. As to conditions: MTCC 4905, 24 h, read-out: IZ.
Assay [8] deals with Bacillus subtilis. The assay can be described thus: Antimicrobial activity against Bacillus subtilis MTCC 4905 at 40 ug after 24 hr by streak plate method. The conditions noted are these: MTCC 4905, 24 h, read-out: IZ.
Assay [9] has as its system Bacillus subtilis. The assay is described as follows: Antimicrobial activity against Bacillus subtilis MTCC 4905 at 20 ug after 24 hr by streak plate method. The conditions noted are these: MTCC 4905, 24 h, read-out: IZ.
The test system of assay [10] is Salmonella typhi. The assay can be described thus: Antimicrobial activity against Salmonella enterica subsp. enterica serovar Typhi MTCC 3917 at 60 ug after 24 hr by streak plate method. As to conditions: MTCC 3917, 24 h, read-out: IZ.
Assay [11] relates to Salmonella typhi. The assay can be described thus: Antimicrobial activity against Salmonella enterica subsp. enterica serovar Typhi MTCC 3917 at 40 ug after 24 hr by streak plate method. As to conditions: MTCC 3917, 24 h, read-out: IZ.
Assay [12] concerns Salmonella typhi. The assay can be described thus: Antimicrobial activity against Salmonella enterica subsp. enterica serovar Typhi MTCC 3917 at 20 ug after 24 hr by streak plate method. As to conditions: MTCC 3917, 24 h, read-out: IZ.
The subject of assay [13] is Escherichia coli. The assay can be described thus: Antimicrobial activity against Escherichia coli MTCC 3261 at 60 ug after 24 hr by streak plate method. The conditions noted are these: MTCC 3261, 24 h, read-out: IZ.
The test system of assay [14] is Escherichia coli. The assay is described as follows: Antimicrobial activity against Escherichia coli MTCC 3261 at 40 ug after 24 hr by streak plate method. As to conditions: MTCC 3261, 24 h, read-out: IZ.
In assay [15] the test system is Escherichia coli. The assay can be described thus: Antimicrobial activity against Escherichia coli MTCC 3261 at 20 ug after 24 hr by streak plate method. As to conditions: MTCC 3261, 24 h, read-out: IZ.

`C[C@@H]1[C@H](O)[C@@H](C)/C=C/C=C/C=C/C=C/C=C/C=C/C=C/[C@H](O[C@@H]2O[C@H](C)[C@@H](O)[C@H](N)[C@@H]2O)C[C@@H]2O[C@](O)(C[C@@H](O)C[C@@H](O)[C@H](O)CC[C@@H](O)C[C@@H](O)CC(=O)O[C@H]1C)C[C@H](O)[C@H]2C(=O)O` [AMPHOTERICIN B]: the zone of inhibition at 60 µg/disc with Aspergillus fumigatus [1] was 30 mm; with Aspergillus oryzae [4], 16 mm. The zone of inhibition at 40 µg/disc with Aspergillus fumigatus [2] was 24 mm; in the assay with Aspergillus oryzae [5], 12 mm. Also, the zone of inhibition at 20 µg/disc with Aspergillus fumigatus [3] stood at 26 mm; in the assay with Aspergillus oryzae [6] it was 12 mm.
For the molecule `CN[C@@H]1[C@H](O[C@H]2[C@H](O[C@H]3[C@H](O)[C@@H](O)[C@H](N=C(N)N)[C@@H](O)[C@@H]3N=C(N)N)O[C@@H](C)[C@]2(O)C=O)O[C@@H](CO)[C@H](O)[C@H]1O` [STREPTOMYCIN], the figures for the zone of inhibition at 60 µg/disc in the assay with Bacillus subtilis [7], in the assay with Salmonella typhi [10] and in the assay on Escherichia coli [13] were 41 mm, 40 mm and 45 mm, respectively. For the same molecule, the zone of inhibition at 40 µg/disc in the assay on Bacillus subtilis [8] was determined as 33 mm; in the assay with Salmonella typhi [11], 40 mm; in the assay with Escherichia coli [14], 39 mm. For the same molecule, the zone of inhibition at 20 µg/disc with Bacillus subtilis [9] turned out to be 30 mm; with Salmonella typhi [12] it was 36 mm; in the assay on Escherichia coli [15] it was 31 mm.
